The nature of data set [1]: Turbidity and clearness of local anesthetic solutions from absorbance at 620 nm (Experimental Example 1). It is filed as physicochemical. The note with it: for OD (620 nm): absorbance at wavelength of 620 nm, CD added at equimolar concentration, pH as in label; for clearness (%) / turbidity (%): calculated from absorbance at 620 nm. Here is the method:
The turbidity and clearness of each inclusion compound solution were calculated from the absorbances thus obtained. […] In the same manner as above, OD (620 nm) was determined with respect to the obtained inclusion compound solution of each local anesthetic in cyclodextrin or a derivative thereof, and solutions of each local anesthetic. The turbidity and clearness of each inclusion compound solution were calculated from the absorbances thus obtained.

Data set [2] can be described thus: Absorbance at 620 nm and pH of solutions over time after stirring (Experimental Example 2). Type of data set: physicochemical. The note with it: N=4; for pH: average; for absorbance at 620 nm: mean±S.E. How it is done: The absorbance at wavelength 620 nm [OD(620 nm)] and pH of 0.4% dibucaine solution were determined using UV-visible recording spectrophotometer (UV-2100, Shimadzu Corporation). The solution was stirred, and OD (620 nm) and pH were determined at 5 min, 24 hr, 48 hr and 72 hr later.
OD (620 nm) and pH of the inclusion compound solution were determined in the same manner as above. The solution was stirred, and OD (620 nm) and pH were determined.
In the same manner as above, OD (620 nm) and pH of 1.0% tetracaine solution and an inclusion compound solution prepared by adding hydroxypropyl-β-cyclodextrin having an equimolar concentration to 1.0% tetracaine solution were determined. The solutions were stirred, and OD (620 nm) and pH were determined.
In the same manner as above, OD (620 nm) and pH of 0.5% bupivacaine solution and an inclusion compound solution prepared by adding α-cyclodextrin having an equimolar concentration to 0.5% bupivacaine solution were determined. The solutions were stirred, and OD (620 nm) and pH were determined.
The solutions were stirred, and OD (620 nm) and pH were determined.

For data set [3], the system named is abdominal giant nerve bundle of crayfish. In words: Anesthetic concentration versus action potential disappearance and recovery time (Experimental Example 7). It is filed as cell-based, crayfish (Procambarus clarkii). An excerpt: A local anesthetic effect is known to be stronger in alkaline range where pH value is greater.
In addition, the relationship between dibucaine concentration and neuroaction potential recovery time was examined at pH 7.4.

Data set [4] is described as follows: in vivo. The note with it: mouse, sc, 40 mg/kg. How it is done: (§1) While local anesthetics are known to show inhibitory action on the central nerve cells at high concentrations, they show stimulating action at low concentrations. […] That is, 0.5 %dibucaine dissolved in physiological saline was subcutaneously injected into the back of 11 mice by 0.3 ml (40 mg/kg body weight), which were compared with 11 mice that underwent subcutaneous injection of a solution containing 0.5% dibucaine and α-cyclodextrin having an equimolar concentration, by 0.3 ml (40 mg/kg body weight).

Data set [5] concerns mice. Put plainly: in vivo. The note with it: mouse, sc, 40 mg/kg. How it is done:
as §1

Take `CCCCN1CCCCC1C(=O)Nc1c(C)cccc1C` (stereo not shown) [bupivacaine]: in data set [1], the “OD (620 nm)” value worked out at 2.108, the “clearness (%)” value is 0% and the “turbidity (%)” value is 100%. Moreover, in data set [2] (5 min later), the pH is reported as 7.20 and the “absorbance at 620 nm” value is listed as 0.087±0.015. Further, in data set [2] (24 hr later), the pH is given as 6.89 and the “absorbance at 620 nm” value came out at 0.659±0.084. For the same compound, in data set [2] (48 hr later), the pH is 6.77 and the “absorbance at 620 nm” value was 0.247±0.061. Further, in data set [2] (initial), the pH is on record as 5.44 and the “absorbance at 620 nm” value is 0.000.

Broadly, the mortality is the percentage killed. The low end stands for a weak lethal effect, the high end for a strong lethal effect. As to `CCCCOc1cc(C(=O)NCCN(CC)CC)c2ccccc2n1` [dibucaine], the “OD (620 nm)” value in data set [1] is 2.015. Moreover, in data set [1], the “clearness (%)” value is given as 0%. In addition, the “turbidity (%)” value in data set [1] is 100%. Also, the pH in data set [2] (5 min later) came out at 6.85; in data set [2] (24 hr later), 6.76; in data set [2] (48 hr later), 6.73; in data set [2] (72 hr later) it was 6.75; in data set [2] (initial), 6.19. The “absorbance at 620 nm” value stood at 1.528±0.087 in data set [2] (5 min later); 1.456±0.079 in data set [2] (24 hr later); 1.385±0.042 in data set [2] (48 hr later); 1.412±0.054 in data set [2] (72 hr later); 0.000 in data set [2] (initial). Further, the “dibucaine concentration at which action potential disappeared and recovered” value in data set [3] (pH 7.4) is listed as 0.008%-0.05%. Moreover, the mortality in data set [4] stood at 91%. The “time to death from the injection” value in data set [5] was “about 20 min”.

In the case of `CCN(CC)CC(=O)Nc1c(C)cccc1C` [lidocaine], the pH in data set [2] (5 min later) came out at 7.09; in data set [2] (24 hr later), 7.05; in data set [2] (48 hr later) it was 7.10; in data set [2] (72 hr later) it was 7.12; in data set [2] (initial), 4.59. Also, the “absorbance at 620 nm” value in data set [2] (5 min later) came to 1.045±0.242; in data set [2] (24 hr later), 0.717±0.152; in data set [2] (48 hr later), 0.382±0.044; in data set [2] (72 hr later) it was 0.595±0.086; in data set [2] (initial), 0.006. The “action potential disappearance time (expression of anesthetic action)” value is 2 min in data set [3] (0.4% lidocaine, pH 7.5) and 80 min in data set [3] (2% lidocaine, pH 6.5).

As for `CCCCNc1ccc(C(=O)OCCN(C)C)cc1` [tetracaine], the “OD (620 nm)” value in data set [1] was 2.732. In data set [1], the “clearness (%)” value is 0%. For the same compound, in data set [1], the “turbidity (%)” value is 100%. Further, the pH is reported as 7.12 in data set [2] (5 min later); 7.04 in data set [2] (24 hr later); 7.05 in data set [2] (48 hr later); 7.05 in data set [2] (72 hr later); 5.49 in data set [2] (initial). For the same compound, the “absorbance at 620 nm” value in data set [2] (5 min later) is on record as 0.517±0.024; in data set [2] (24 hr later), 0.411±0.024; in data set [2] (48 hr later), 0.386±0.015; in data set [2] (72 hr later), 0.301±0.025; in data set [2] (initial), 0.000.

These data come from patent publication EP0838225A2, “Aqueous local anesthetic solution” (Hiji, Yasutake, priority 1996, dated 1998).
